# Experimental data: US20060229264A1, “Crystalline 6-n-pyridylmethylaminoindolocarbazole compounds” (priority 2003, published 2006)
# How the values were obtained:
# Type in all cases: physicochemical
# [1] = Solid thermostability test (accelerated test at 80° C. in tightly closed vials); conditions: after 4 weeks
# Procedure: A solid thermostability test of amorphous free bases and crystals of the compounds represented by the formula (II), the formula (III) and the formula (IV) is shown in Table 1. This test is an accelerated test conducted at 80° C. in tightly closed vials.
# [2] = Solid light stability test (25° C., 2000 lux light source, tight-closed vials); conditions: after 4 weeks
# Procedure: A solid light stability test of amorphous free bases and crystals of the compounds represented by the formula (II), the formula (III) and the formula (IV) is shown in Table 2. This test was carried out at 25° C. under the light source of 2000 luxes in tight-closed vials.
# [3] = Test on solubility in water
# Source text: Solubilities of crystals of intramolecular salts of the compounds of the formulae (II), (III) and (IV) and the corresponding amorphous free bases in water are shown below.
# [4] = Hygroscopicity test (moisture sorption analyzer); conditions: for Changes in weight under dehumidifying condition (desorption) compared with humidifying condition: desorption versus adsorption of water, FIG. 3 / FIG. 4; for Weight change rate upon humidification: relative humidity changed from 30% to 75% (adsorption process of water)
# Source text: Comparing the hygroscopicity of amorphous free base of the compound represented by the above formula (II) with that of crystals of hydrochloride of the same compound, the weight of the amorphous free base increased by 7.6% under the moisturized condition (adsorption process of water), while the weight of the crystal increased as slightly as 1.5% in the case where the comparison was done changing the humidity from 30% to 75% which is the humidity for usual preservation. Thus, the weight change rate of the amorphous free base of the compound represented by the formula (II) upon humidification (relative humidity changes from 30% to 75%) was 7.6%. On the other hand, the weight change rate of the crystals of hydrochloride of the compound represented by the formula (II) upon humidification (relative humidity changes from 30% to 75%) was 1.5%, therefore, the influence by humidification was very little.
# Hygroscopicity test was conducted by IGAsorp Moisture Sorption Analyzer, manufacture by Hiden Analytical Limited (refer to FIG. 3).
Compound,Residual Rate (thermostability of solid) [1] [%],Residual Rate (light stability of solid) [2] [%],Solubility in water ([3]; listed as Amorphous free base of the compound represented by the formula (II)),Changes in weight under dehumidifying condition (desorption) compared with humidifying condition [4],Weight change rate upon humidification [4] [%],solubility [3] [µg/mL]
O=C1c2c(c3c4ccc(O)cc4n(C4OC(CO)C(O)C(O)C4O)c3c3[nH]c4cc(O)ccc4c23)C(=O)N1NCc1ccncc1CO (centres unmarked) [Crystals of methanesulfonate of the compound of the formula ],99.1,–,–,–,–,–
O=C1c2c(c3c4ccc(O)cc4n(C4OC(CO)C(O)C(O)C4O)c3c3[nH]c4cc(O)ccc4c23)C(=O)N1NCc1ccncc1CO (centres unmarked) [Amorphous free base of the compound of the formula (II)],87.8,89.5,not more than 0.001 mg/mL,greatly different,7.6,–
O=C1c2c(c3c4ccc(O)cc4n(C4OC(CO)C(O)C(O)C4O)c3c3[nH]c4cc(O)ccc4c23)C(=O)N1NCc1ccncc1CO (centres unmarked) [Crystals of free base of the compound of the formula (II)],–,95.6,–,–,–,–
Cl.O=C1c2c(c3c4ccc(O)cc4n(C4OC(CO)C(O)C(O)C4O)c3c3[nH]c4cc(O)ccc4c23)C(=O)N1NCc1ccncc1CO (centres unmarked),–,94.3,–,nearly the same,1.5,10000 to 50000
Cl.O=C1c2c(c3c4ccc(O)cc4n(C4OC(CO)C(O)C(O)C4O)c3c3[nH]c4cc(O)ccc4c23)C(=O)N1NCc1ccncc1 (centres unmarked),98.4,95.8,–,nearly the same,0.6,10000 to 50000
O=C1c2c(c3c4ccc(O)cc4n(C4OC(CO)C(O)C(O)C4O)c3c3[nH]c4cc(O)ccc4c23)C(=O)N1NCc1ccncc1 (centres unmarked),–,–,–,–,–,≤ 1
O=C1c2c(c3c4ccc(O)cc4n(C4OC(CO)C(O)C(O)C4O)c3c3[nH]c4cc(O)ccc4c23)C(=O)N1NCc1ccncc1 (centres unmarked) [Crystals of free base of the compound of the formula (IV)],99.7,99.5,–,–,–,–
O=C1c2c(c3c4ccc(O)cc4n(C4OC(CO)C(O)C(O)C4O)c3c3[nH]c4cc(O)ccc4c23)C(=O)N1NCc1cccc(CO)n1 (centres unmarked),66.6,78.9,–,–,–,≤ 1
O=C1c2c(c3c4ccc(O)cc4n(C4OC(CO)C(O)C(O)C4O)c3c3[nH]c4cc(O)ccc4c23)C(=O)N1NCc1ccncc1 (centres unmarked) [Amorphous free base of the compound of the formula (IV)],82.9,84.6,–,significantly different,2.8,–
